Results as given in US20100158808A1, “Altered Activity of Toll-Like Receptors” (priority 2003, published 2010).

How the values were obtained:
mice = assay: Experimental shock model (SIRS), D-galactosamine, i.p. injection; format: in vivo; details: for Death / SIRS in shock model: TLR4-mutant mice; for Death / SIRS in shock model / Death in shock model: i.p. with D-galactosamine; for Death in shock model: TLR4 wild-type mice
Procedure: Experimental shock model. Age- and sex-matched mice were injected with 5 mg of HS, 5 μg of LPS, 5 μg of Limulus anti-LPS factor, 5 mg of chondroitin sulfate, 200 U (−5 mg) heparin, 150 μg of CpG DNA, 1.5 U of elastase, or PBS mixed with 20 mg of D-galactosamine in a total volume of 500 μl of PBS by i.p. injection as previously described (Franks et al. (1991) Infect. Immun. 59:2609). Concentrations of HS and elastase were calculated by weight of lyophilized powder, and the doses used were near the LD50 based on dose-response experiments. In some experiments, the agonist was mixed with 5 or 20 μg of Limulus anti-LPS factor before injection. For some injections, enzymes were boiled at 100° C. for 60 minutes and vortexed vigorously, or preincubated with elastase inhibitor-1 for 4 hours at room temperature and then mixed with D-galactosamine before injection. Mice were monitored every hour for 48 hours and then euthanized.
During sepsis, Gram-negative bacteria shed LPS, which activates TLR4 on cells that then release inflammatory cytokines mediating systemic inflammation and death (Beutler (2000) Curr. Opin. Immunol. 12:20). To determine whether soluble HS can induce a model of systemic inflammatory response syndrome (SIRS) via activation of TLR4 in mice, HS was administered by i.p. injection to TLR4 wild type and mutant mice. This mouse model system has been used to study shock and a sepsis-like syndrome in response to microbial toxins (Galanos et al. (1979) Proc. Natl. Acad. Sci. USA 76:5939). […] Moreover, the observed responses were not due to contamination of HS by LPS, since the HS used was not contaminated with LPS.

TLR4 = assay: Serum TNF-α after i.p. injection in mice, ELISA; format: in vivo
Procedure: Cytokine Quantification. Age-matched female mice were injected in the peritoneum with 0.5 U of elastase, 5 mg of HS, 200 U of heparin, 150 μg of CpG DNA, or PBS with a total volume of 250 μl. One hour and 3 hours after injection, 100-μl blood samples were collected from the tail vein. Cell supernatants and serum samples were immediately frozen at −20° C. until analysis. Concentrations of TNF-α were analyzed by enzyme-linked sandwich ELISA (R&D Systems, Minneapolis, Minn.).

TLR4/MD2 complex = molecular target: T1, TLR4/MD2 complex (Mus musculus, UniProt Q9JHF9+Q9QUK6); assay: Cell surface expression of TLR4/MD2 in HEK/TLR4(+) cells by flow cytometry; format: cell-based, murine
T1 construct: expressed in transfected cells; host or cells: HEK 293 clone HEK/TLR4(+)
T1 sequence (Q9QUK6 26-835): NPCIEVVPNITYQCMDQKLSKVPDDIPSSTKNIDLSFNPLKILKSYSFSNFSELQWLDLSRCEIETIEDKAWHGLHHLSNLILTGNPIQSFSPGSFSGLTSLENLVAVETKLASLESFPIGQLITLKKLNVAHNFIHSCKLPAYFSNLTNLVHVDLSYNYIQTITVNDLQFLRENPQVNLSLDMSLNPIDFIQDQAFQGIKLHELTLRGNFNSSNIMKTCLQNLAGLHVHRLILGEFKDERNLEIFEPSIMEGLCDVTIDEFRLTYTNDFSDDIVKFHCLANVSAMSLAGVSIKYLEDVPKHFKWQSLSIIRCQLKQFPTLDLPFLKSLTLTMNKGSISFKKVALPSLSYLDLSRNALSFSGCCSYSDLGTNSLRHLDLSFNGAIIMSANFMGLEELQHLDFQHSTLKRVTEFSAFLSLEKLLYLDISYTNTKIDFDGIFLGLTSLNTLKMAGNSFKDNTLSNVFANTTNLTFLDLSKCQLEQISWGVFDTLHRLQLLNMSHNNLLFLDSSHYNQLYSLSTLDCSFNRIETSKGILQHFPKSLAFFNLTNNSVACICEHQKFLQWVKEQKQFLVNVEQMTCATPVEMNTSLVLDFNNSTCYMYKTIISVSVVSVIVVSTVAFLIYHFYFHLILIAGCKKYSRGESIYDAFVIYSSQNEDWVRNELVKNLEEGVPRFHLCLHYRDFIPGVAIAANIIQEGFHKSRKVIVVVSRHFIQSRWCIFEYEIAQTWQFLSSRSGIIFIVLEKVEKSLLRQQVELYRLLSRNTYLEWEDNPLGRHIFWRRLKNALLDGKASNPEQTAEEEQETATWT
T1 sequence (Q9JHF9 19-160): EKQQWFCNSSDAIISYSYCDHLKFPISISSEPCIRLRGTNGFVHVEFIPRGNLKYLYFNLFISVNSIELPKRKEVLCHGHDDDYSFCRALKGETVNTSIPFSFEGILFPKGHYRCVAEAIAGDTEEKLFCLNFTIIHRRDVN
Procedure: FIG. 2A is a graph plotting the level of reporter activity in HEK/TLR4(+) cells transfected with NFκB- and control-luciferase reporter plasmids and then stimulated with intact HS or LPS, or with HS or LPS that had been treated with nitrous acid (HNO2) at pH 4.0 or pH 1.5. Controls were treated with PBS vehicle. […] FIG. 2C is a graph showing the effect of PBS, HS, depolymerized HS (nitrous acid, pH 1.5), and recombinant human IL-1α on cell surface expression of TLR4/MD2 in HEK/TLR4(+) cells. Expression of TLR4 on the cell surface was determined by flow cytometry using a monoclonal antibody specific to the TLR4/MD2 complex. Values are the mean of triplicate wells and are representative of three separate experiments.
To determine whether the effect of HS occurred through specific action on TLR4, surface expression of the TLR4/MD2 complex on cells treated with HS was examined. […] Thus, HEK/TLR4(+) cells responded to HS by activating NFκB and mobilizing receptor complexes.

[1] = TLR4-mutant mice, up to 3 hours
[2] = wild-type mice, 1 hour after treatment

Substance | Death / SIRS in shock model (mice) | Percent death after injection of elastase in SIRS shock model, TLR4 Mutant (%) (mice; TLR4 mutant mice) | Percent death after injection of elastase in SIRS shock model, TLR4 Wild Type (%) (mice; TLR4 wild type mice) | Death in shock model (mice) | Serum TNF-α (TLR4; [1]) | Serum TNF-α (TLR4; [2]) | Decrease in surface expression of TLR4/MD2 (TLR4/MD2 complex) [%] | Change in surface expression of TLR4/MD2 (TLR4/MD2 complex)
elastase: pancreatic elastase (Calbiochem; type IV porcine pancreatic elastase, Sigma-Aldrich), protease that cleaves ECM proteins | no TLR4 mutant mice died | 0 | 50 | Fifty percent | not detectable | high serum levels of TNF-α |  | 
heparan sulfate [HS] | no TLR4-mutant mice injected with HS died |  |  | eighty percent | not detectable | high serum levels of TNF-α | 60 | 
lipopolysaccharide [LPS] |  |  |  | died |  |  |  | a decrease similar to that induced by LPS
